Assay results as given in patent US11446269B2, “Methods of reducing or preventing oxidation of small dense LDL or membrane polyunsaturated fatty acids” (Amarin Pharmaceuticals Ireland Limited, priority 2014, dated 2022).

Key:
HUVECs = assay: NO and ONOO^− release from HUVECs pretreated with agents, then oxLDL (Example 11, objective 1); format: cell-based, human; details: agents 10 μM, 30 min pretreatment, then oxLDL 11 mg/dL up to 3 hr
Protocol: Human umbilical vein endothelial cells (HUVECs) were obtained from healthy, female donors and isolated into primary, proliferating cell cultures (Clonetics, San Diego, Calif.). […] The confluent cells (4 to 5×10^5 cells/35 mm dish) were plated with minimum essential medium containing 3 mM L-arginine and 0.1 mM BH4 [(6R)-5,6,7,8-tetrahydrobiopterin]. Before experimental use, the cells (from second or third passage) were rinsed twice with Tyrode-HEPES buffer with 1.8 mM CaCl2.
Venous blood was collected from healthy volunteers into vacutainer tubes containing sodium EDTA. […] The LDL subfraction was retained for additional experimentation. Plasma and lipoprotein fractions were maintained at 4° C. and protected from excessive exposure to light. Prior to oxidation experiments, EDTA was removed from the lipoprotein fraction using PD-10 desalting columns (GE Healthcare, Piscataway N.J.). After equilibration of the column with phosphate buffered saline (PBS), 2.5 mL of the lipoprotein fraction was loaded on the column and the flow-through discarded. The lipoprotein was then eluted with 3 mL of PBS. The LDL fractions were further diluted with PBS to obtain a 100 μg/mL apoB100 concentration.
LDL underwent oxidation following the addition of 10 μM CuSO4. To measure oxidation, 100 μL aliquots were removed and combined with 1.0 mL thiobarbituric acid (0.5%), 10 μL trichloroacetic acid (5%), 10 μL BHT (5 mg/mL in methanol), and 10 μL EDTA (5 mM). […] Sample TBARS concentrations were determined spectrophotometrically by measuring sample absorbances against a standard curve derived from the hydrolysis of 1,1,3,3-tetramethoxypropane.
Concurrent measurements of NO and ONOO^− were performed with tandem electrochemical nanosensors combined into one working unit with a total diameter of 200-400 nm. […]
The amperometric method (with a response time of 0.1 ms) provides a quantitative signal (current) that is directly proportional to changes (from basal levels) in NO or ONOO^− concentration. […] Basal NO or ONOO^− levels were measured by differential pulse voltammetry in separate experiments. […]

human sdLDL = assay: Copper-induced sdLDL oxidation, TBARS after 2 hr (Example 6); format: biochemical; details: 10 μM CuSO4, vs vehicle
Protocol: Venous blood was collected from healthy volunteers into vacutainer tubes containing sodium EDTA. Plasma was separated by centrifugation at 3000 g for 25 min at 4° C. and adjusted to a density of 1.020 g/mL with KBr. Triglyceride-rich lipoproteins (TGRL) and LDL fractions were then isolated by sequential centrifugation at 70,000 rpm at 4° C. in a Beckman LE-80 ultracentrifuge using a Beckman 50.4Ti rotor (Beckman Coulter, Inc., Fullerton, Calif.). The TGRL fraction (with a relative density of <1.020) was aspirated from the top of the centrifugate and discarded, leaving an LDL-enriched infranate (with a relative density of 1.020 to 1.063). The plasma LDL fraction was further fractionated into LDL1, LDL2, LDL3, and LDL4 (sdLDL) subfractions with relative densities of 1.020 to 1.035, 1.035 to 1.050, 1.050 to 1.063, and 1.063 to 1.075, respectively. The sdLDL subfraction was retained for additional experimentation. Plasma and lipoprotein fractions were maintained at 4° C. and protected from excessive exposure to light. Prior to oxidation experiments, EDTA was removed from the lipoprotein fraction using PD-10 desalting columns (GE Healthcare, Piscataway N.J.). After equilibration of the column with phosphate buffered saline (PBS), 2.5 mL of the lipoprotein fraction was loaded on the column and the flow-through discarded. The lipoprotein was then eluted with 3 mL of PBS. The LDL fractions were further diluted with PBS to obtain a 100 μg/mL apoB100 concentration.
LDL and sdLDL subfractions (0.6 mL each) were incubated with either 10 μL vehicle (ethanol) or 10 μL drug stock solution for 30 min to 1 hr at 37° C. Oxidation was initiated by the addition of 10 μM CuSO4. After 2 hr, 100 μL aliquots were removed from each subfraction and combined with 1.0 mL thiobarbituric acid (0.5%), 10 μL trichloroacetic acid (5%), 10 μL BHT (5 mg/mL in methanol), and 10 μL EDTA (5 mM). […]. Sample TBARS concentrations were determined spectrophotometrically by measuring sample absorbances against a standard curve derived from the hydrolysis of 1,1,3,3-tetramethoxypropane.

Row | Compound | NO/ONOO^− Ratio (HUVECs) | NO release (HUVECs; calcium ionophore) | NO/ONOO^− Ratio (HUVECs; listed as niacin) | reduction of TBARS levels (human sdLDL; 1.0 μM) [%] | reduction of TBARS levels (human sdLDL; 10.0 μM) [%]
1 | O=C(O)c1cccnc1 [Niacin, nicotinic acid] | 1.45 ± 0.14 | 346 ± 17 | 1.45±0.14 |  | 
2 | CC/C=C\C/C=C\C/C=C\C/C=C\C/C=C\CCCC(=O)O [EPA, cis-5,8,11,14,17-eicosapentaenoic acid] |  |  |  | 13 | 57
